Experimental data as given in the supplement of paper PMC6045584.
± gives the standard deviation of the averaged measurements.

What was measured:
[1] = compound: COc1cc([C@@H]2c3cc4c(cc3[C@@H](O[C@@H]3O[C@@H]5CO[C@@H](C)O[C@H]5[C@H](O)[C@H]3O)[C@H]3COC(=O)[C@H]23)OCO4)cc(OC)c1O [ETOPOSIDE]; assay: surviving fraction relative to DMSO-only wells; higher = less growth inhibition; conditions: exposure time: 5 days
In short: (§1)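 Luminescence normalised to the median of DMSO-only wells defines surviving fraction, with viability read by CellTiter-Glo. Signal was recorded after 10 minutes at room temperature, once log-phase tumour cell lines seeded at 250–500 cells per well in 384-well plates had spent 24 hours settling and then five days under continuous exposure to inhibitors at 0.5, 1, 5, 10, 50, 100, 500 and 1000 nM.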

[2] = compound: CCN(CC)CCNC(=O)c1c(C)[nH]c(/C=C2\C(=O)Nc3ccc(F)cc32)c1C [SUNITINIB]; assay: as above; conditions: exposure time: 5 days
In short: as §1

| Test System | surviving fraction ([1]; 0.5 nM) | surviving fraction ([1]; 1 nM) | surviving fraction ([1]; 5 nM) | surviving fraction ([1]; 10 nM) | surviving fraction ([1]; 50 nM) | surviving fraction ([1]; 100 nM) | surviving fraction ([1]; 500 nM) | surviving fraction ([1]; 1000 nM) | surviving fraction ([2]; 0.5 nM) | surviving fraction ([2]; 1 nM) | surviving fraction ([2]; 5 nM) | surviving fraction ([2]; 10 nM) | surviving fraction ([2]; 50 nM) | surviving fraction ([2]; 100 nM) | surviving fraction ([2]; 500 nM) | surviving fraction ([2]; 1000 nM) |
| --- | --- | --- | --- | --- | --- | --- | --- | --- | --- | --- | --- | --- | --- | --- | --- | --- |
| SG31 HEADNECK | 1.05 ± 0.092 | 1.06 ± 0.04 | 1.1 ± 0.11 | 1.13 ± 0.14 | 0.946 ± 0.11 | 0.969 ± 0.11 | 0.856 ± 0.087 | 0.837 ± 0.058 | 0.778 ± 0.067 | 0.858 ± 0.037 | 0.884 ± 0.12 | 0.419 ± 0.04 | 0.93 ± 0.06 | 0.962 ± 0.14 | 0.797 ± 0.13 | 0.343 ± 0.017 |
| SG32 HEADNECK | 1.23 ± 0.076 | 1.3 ± 0.13 | 1.37 ± 0.11 | 1.2 ± 0.17 | 1.1 ± 0.098 | 1 ± 0.14 | 0.726 ± 0.042 | 0.608 ± 0.11 | – | 0.578 ± 0.032 | 0.771 ± 0.13 | 0.423 ± 0.078 | 0.96 ± 0.045 | 0.609 ± 0.062 | 0.317 ± 0.048 | 0.0993 ± 0.011 |
| SG43 HEADNECK | 1.02 ± 0.13 | 1.02 ± 0.21 | 0.933 ± 0.24 | 0.832 ± 0.23 | 0.876 ± 0.031 | 0.645 ± 0.11 | 0.894 ± 0.07 | 0.644 ± 0.064 | 1.27 ± 0.13 | 1.25 ± 0.068 | 0.975 ± 0.18 | – | 0.824 ± 0.12 | 1.02 ± 0.13 | 0.982 ± 0.09 | 1.52 ± 0.029 |
| SIHA CERVIX | 1.07 ± 0.041 | 1.036 ± 0.0067 | 1.08 ± 0.12 | 1.11 ± 0.069 | 1.12 ± 0.049 | 1.16 ± 0.11 | 0.863 ± 0.058 | 0.684 ± 0.018 | 0.957 ± 0.088 | – | 0.972 ± 0.04 | 0.984 ± 0.028 | 1.11 ± 0.047 | 1.02 ± 0.086 | 0.725 ± 0.026 | 0.418 ± 0.04 |
| SJSA1 BONE | 1.04 ± 0.022 | 1.04 ± 0.058 | 1.06 ± 0.036 | 1.01 ± 0.024 | 1.05 ± 0.03 | 1.02 ± 0.076 | 0.71 ± 0.0095 | 0.503 ± 0.0085 | – | 0.869 ± 0.017 | – | 0.872 ± 0.022 | 1.02 ± 0.038 | – | 0.8283 ± 0.0078 | 0.579 ± 0.011 |
| SKBR3 BREAST | 1.07 ± 0.027 | 1.06 ± 0.099 | 1.1 ± 0.15 | 1.03 ± 0.12 | 1.12 ± 0.11 | 1.05 ± 0.084 | 0.66 ± 0.068 | 0.478 ± 0.12 | – | 0.795 ± 0.073 | 0.738 ± 0.1 | 0.696 ± 0.12 | 0.875 ± 0.035 | 0.867 ± 0.084 | 0.64 ± 0.064 | 0.492 ± 0.014 |
| SNU475 LIVER | 1.02 ± 0.05 | 0.999 ± 0.11 | 1 ± 0.039 | 1.03 ± 0.042 | 0.9937 ± 0.0049 | 0.957 ± 0.066 | 0.835 ± 0.042 | 0.571 ± 0.062 | – | 0.729 ± 0.052 | 0.814 ± 0.049 | 0.371 ± 0.031 | – | 0.8163 ± 0.0045 | 0.752 ± 0.022 | 0.193 ± 0.01 |
| SUM44 BREAST | 1.03 ± 0.026 | 1.05 ± 0.034 | 1.05 ± 0.046 | 1.06 ± 0.027 | 1.09 ± 0.043 | 1.11 ± 0.062 | 0.928 ± 0.082 | 0.913 ± 0.036 | 0.82 ± 0.065 | 0.877 ± 0.02 | 0.966 ± 0.061 | 0.915 ± 0.04 | 1.07 ± 0.076 | 1.11 ± 0.023 | – | 0.958 ± 0.013 |
| SUM149 BREAST | 1.16 ± 0.04 | 1.17 ± 0.061 | 1.21 ± 0.048 | 1.13 ± 0.077 | 0.753 ± 0.044 | 0.563 ± 0.025 | 0.156 ± 0.0049 | 0.153 ± 0.0044 | 0.797 ± 0.036 | 0.755 ± 0.016 | 0.884 ± 0.052 | 0.213 ± 0.016 | 0.906 ± 0.061 | 0.756 ± 0.039 | 0.619 ± 0.017 | 0.176 ± 0.01 |
| SUM149.B1*.S BREAST | 1.1 ± 0.042 | 1.1 ± 0.053 | 1.11 ± 0.017 | 1.12 ± 0.07 | 1.08 ± 0.03 | 1.043 ± 0.0053 | 0.445 ± 0.0065 | 0.343 ± 0.013 | 0.877 ± 0.07 | 0.786 ± 0.039 | – | 0.437 ± 0.023 | 0.988 ± 0.02 | 0.873 ± 0.022 | 0.789 ± 0.02 | 0.27 ± 0.0057 |
| SUM159 BREAST | 1.14 ± 0.18 | 1.08 ± 0.08 | 1.1 ± 0.11 | 1.07 ± 0.058 | 1.06 ± 0.055 | 0.977 ± 0.079 | 0.364 ± 0.086 | 0.187 ± 0.027 | – | 0.9683 ± 0.0076 | – | 0.927 ± 0.06 | 0.914 ± 0.12 | – | 0.839 ± 0.13 | 0.548 ± 0.11 |
| SYO1 SYNOVIAL | 0.994 ± 0.042 | 0.997 ± 0.059 | 0.975 ± 0.027 | 0.933 ± 0.023 | 0.7 ± 0.044 | 0.505 ± 0.051 | 0.106 ± 0.024 | 0.0784 ± 0.014 | 0.789 ± 0.035 | 0.609 ± 0.092 | 0.664 ± 0.03 | 0.313 ± 0.13 | 0.819 ± 0.013 | 0.768 ± 0.036 | 0.52 ± 0.014 | 0.0887 ± 0.054 |
| T47D BREAST | 1.06 ± 0.042 | 1.04 ± 0.03 | 1.07 ± 0.09 | 1.02 ± 0.021 | 1.03 ± 0.047 | 0.96 ± 0.068 | 0.525 ± 0.036 | 0.46 ± 0.023 | 0.93 ± 0.037 | 0.896 ± 0.059 | 0.911 ± 0.018 | 0.817 ± 0.034 | 1.11 ± 0.027 | 1.13 ± 0.038 | 1.13 ± 0.04 | 0.985 ± 0.077 |
| U2OS BONE | 1.03 ± 0.034 | 1.02 ± 0.062 | 1.05 ± 0.025 | 1.047 ± 0.009 | 1.022 ± 0.0045 | 0.867 ± 0.057 | 0.56 ± 0.026 | 0.546 ± 0.021 | 0.882 ± 0.039 | 0.893 ± 0.032 | 0.95 ± 0.032 | – | 0.956 ± 0.026 | 0.94 ± 0.038 | 0.549 ± 0.014 | 0.262 ± 0.0072 |
| VCAP PROSTATE | 1.19 ± 0.16 | 1.07 ± 0.032 | 1.14 ± 0.11 | 1.14 ± 0.088 | 1.07 ± 0.1 | 1.05 ± 0.092 | 0.541 ± 0.063 | 0.421 ± 0.049 | 0.976 ± 0.065 | 1 ± 0.088 | 1.09 ± 0.07 | 1.02 ± 0.038 | 1.06 ± 0.077 | 1.09 ± 0.099 | 0.734 ± 0.034 | 0.519 ± 0.06 |
| VP229 BREAST | 1.11 ± 0.042 | 1.09 ± 0.16 | 1.14 ± 0.24 | 1.19 ± 0.075 | 1.17 ± 0.062 | 1.13 ± 0.064 | 1.18 ± 0.14 | 1.15 ± 0.084 | 0.708 ± 0.076 | 0.675 ± 0.1 | 0.709 ± 0.04 | 0.709 ± 0.065 | 0.955 ± 0.12 | 0.964 ± 0.038 | 0.762 ± 0.064 | 0.364 ± 0.051 |
| YAMATO SYNOVIAL | 1.3 ± 0.12 | 1.32 ± 0.063 | 1.19 ± 0.051 | 1.22 ± 0.18 | 1.26 ± 0.018 | 1.11 ± 0.096 | 0.636 ± 0.014 | 0.575 ± 0.031 | – | 0.392 ± 0.031 | 0.586 ± 0.058 | 0.0847 ± 0.0081 | – | 0.583 ± 0.021 | 0.588 ± 0.046 | 0.0633 ± 0.0023 |
| ZR751 BREAST | 1.1 ± 0.04 | 1.1 ± 0.048 | 1.02 ± 0.067 | 1.05 ± 0.076 | 0.996 ± 0.022 | 0.968 ± 0.089 | 0.901 ± 0.078 | 0.7397 ± 0.007 | – | 1.1 ± 0.16 | 1.15 ± 0.083 | – | 1.31 ± 0.25 | – | 1.22 ± 0.16 | – |
